Measured values published in ChEMBL document CHEMBL5236659, “Design, synthesis and antitumor activity of novel thiophene- triazine derivatives bearing arylurea unit as potent PI3K/mTOR inhibitorss” (Bioorg Med Chem, 2023).
The source made the active and inactive calls. The calls are words filed in the database; no cut-off is given here.

Key:
[1] = Antiproliferative activity against human U-87 MG cells assessed as inhibition of cell growth incubated for 72 hrs by MTT assay; assay type: functional, cell-based, U-87MG ATCC
Homo sapiens = species on record: Homo sapiens; experiment: Selectivity index, ratio of IC50 for inhibition of PI3Kalpha (unknown origin) to IC50 for inhibition of mTOR (unknown origin) by kinase glo luminescent assay
[2] = Selectivity ratio of IC50 for antiproliferative activity against human MCF7 cells to IC50 for antiproliferative activity against human U-87 MG cells; assay type: functional
HeLa [3] = experiment: Antiproliferative activity against human HeLa cells assessed as inhibition of cell growth incubated for 72 hrs by MTT assay; assay type: functional, cell-based
NCI-H1975 = experiment: Antiproliferative activity against human NCI-H1975 cells overexpressing EGFR L858R/T790M mutant assessed as inhibition of cell growth incubated for 72 hrs by MTT assay; assay type: functional, cell-based; settings: NCI-H1975, 72 h
[4] = biological target: T1, Phosphatidylinositol 4,5-bisphosphate 3-kinase catalytic subunit alpha isoform (Homo sapiens, UniProt P42336); experiment: Inhibition of PI3Kalpha (unknown origin) at 1 uM by kinase-glo luminescent assay relative to control
T1 sequence (P42336 whole entry, canonical isoform): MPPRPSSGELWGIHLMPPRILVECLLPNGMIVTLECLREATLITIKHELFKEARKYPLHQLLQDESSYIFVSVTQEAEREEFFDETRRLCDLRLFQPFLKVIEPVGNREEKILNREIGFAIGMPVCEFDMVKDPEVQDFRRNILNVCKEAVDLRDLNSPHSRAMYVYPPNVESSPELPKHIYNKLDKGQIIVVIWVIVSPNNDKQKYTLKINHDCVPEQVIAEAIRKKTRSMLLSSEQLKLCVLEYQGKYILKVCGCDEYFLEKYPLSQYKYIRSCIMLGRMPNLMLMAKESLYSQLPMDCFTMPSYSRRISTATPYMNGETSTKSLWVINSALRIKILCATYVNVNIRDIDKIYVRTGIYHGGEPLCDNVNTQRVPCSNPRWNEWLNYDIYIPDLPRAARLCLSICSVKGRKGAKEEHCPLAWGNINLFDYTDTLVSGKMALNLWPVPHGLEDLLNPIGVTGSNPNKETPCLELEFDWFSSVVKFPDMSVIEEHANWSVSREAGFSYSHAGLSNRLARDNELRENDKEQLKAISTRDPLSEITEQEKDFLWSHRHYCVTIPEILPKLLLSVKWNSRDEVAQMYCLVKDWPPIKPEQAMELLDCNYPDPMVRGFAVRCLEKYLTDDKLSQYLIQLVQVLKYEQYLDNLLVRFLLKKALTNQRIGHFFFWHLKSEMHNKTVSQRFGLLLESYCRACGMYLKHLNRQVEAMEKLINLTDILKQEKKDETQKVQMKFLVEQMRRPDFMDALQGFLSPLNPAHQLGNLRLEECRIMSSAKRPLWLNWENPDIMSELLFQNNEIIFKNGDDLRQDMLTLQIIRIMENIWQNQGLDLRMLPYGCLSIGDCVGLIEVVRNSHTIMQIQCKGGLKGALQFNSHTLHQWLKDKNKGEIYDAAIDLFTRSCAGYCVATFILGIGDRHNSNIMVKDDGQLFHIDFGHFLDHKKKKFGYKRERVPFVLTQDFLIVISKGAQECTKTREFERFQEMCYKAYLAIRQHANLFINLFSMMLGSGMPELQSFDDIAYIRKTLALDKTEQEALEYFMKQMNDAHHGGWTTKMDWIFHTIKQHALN

NCI-H460 = experiment: Antiproliferative activity against human NCI-H460 cells assessed as inhibition of cell growth incubated for 72 hrs by MTT assay; assay type: functional, cell-based; settings: NCI-H460, 72 h
[5] = Selectivity ratio of IC50 for antiproliferative activity against human HeLa cells to IC50 for antiproliferative activity against paclitaxel-resistant human HeLa cells; assay type: functional
[6] = Selectivity ratio of IC50 for antiproliferative activity against human A549 cells to IC50 for antiproliferative activity against human NCI-H1975 cells overexpressing EGFR L858R/T790M mutant; assay type: functional
A549 = experiment: Antiproliferative activity against human A549 cells assessed as inhibition of cell growth incubated for 72 hrs by MTT assay; assay type: functional, cell-based; settings: A549, 72 h
[7] = biological target: T2, Serine/threonine-protein kinase mTOR (Homo sapiens, UniProt P42345); experiment: Inhibition of mTOR (unknown origin) at 1 uM by kinase-glo luminescent assay relative to control
[8] = Antiproliferative activity against human OVCAR-2 cells assessed as inhibition of cell growth incubated for 72 hrs by MTT assay; assay type: functional, cell-based; settings: OVCAR-2, 72 h
[9] = biological target: T1, Phosphatidylinositol 4,5-bisphosphate 3-kinase catalytic subunit alpha isoform; experiment: Inhibition of PI3Kalpha (unknown origin) by kinase-glo luminescent assay
HeLa [10] = experiment: Antiproliferative activity against paclitaxel-resistant human HeLa cells assessed as inhibition of cell growth incubated for 72 hrs by MTT assay; assay type: functional, cell-based
MCF7 = experiment: Antiproliferative activity against human MCF7 cells assessed as inhibition of cell growth incubated for 72 hrs by MTT assay; assay type: functional, cell-based; settings: MCF7, 72 h
[11] = biological target: T2, Serine/threonine-protein kinase mTOR; experiment: Inhibition of mTOR (unknown origin) by kinase-glo luminescent assay
[12] = biological target: RAC-alpha serine/threonine-protein kinase (Homo sapiens) (UniProt P31749); experiment: Inhibition of AKT1 (unknown origin) at 1 uM by kinase-glo luminescent assay relative to control
Sequence of RAC-alpha serine/threonine-protein kinase (Homo sapiens) (P31749 whole entry): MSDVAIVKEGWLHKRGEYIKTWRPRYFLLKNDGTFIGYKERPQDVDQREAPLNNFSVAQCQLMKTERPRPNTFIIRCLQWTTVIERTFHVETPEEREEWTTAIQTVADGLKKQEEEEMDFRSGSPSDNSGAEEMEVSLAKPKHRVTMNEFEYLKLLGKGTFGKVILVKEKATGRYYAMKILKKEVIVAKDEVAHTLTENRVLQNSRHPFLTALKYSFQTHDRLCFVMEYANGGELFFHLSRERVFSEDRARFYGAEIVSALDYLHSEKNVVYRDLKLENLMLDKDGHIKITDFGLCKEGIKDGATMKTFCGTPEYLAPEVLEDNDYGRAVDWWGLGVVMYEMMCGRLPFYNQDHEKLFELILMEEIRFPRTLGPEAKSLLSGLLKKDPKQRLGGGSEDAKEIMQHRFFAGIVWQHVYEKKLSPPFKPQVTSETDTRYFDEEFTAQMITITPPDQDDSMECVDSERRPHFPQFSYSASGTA

[13] = biological target: Epidermal growth factor receptor (Homo sapiens) (UniProt P00533); experiment: Inhibition of EGFR (unknown origin) at 1 uM by kinase-glo luminescent assay relative to control
Sequence of Epidermal growth factor receptor (Homo sapiens) (P00533 whole entry): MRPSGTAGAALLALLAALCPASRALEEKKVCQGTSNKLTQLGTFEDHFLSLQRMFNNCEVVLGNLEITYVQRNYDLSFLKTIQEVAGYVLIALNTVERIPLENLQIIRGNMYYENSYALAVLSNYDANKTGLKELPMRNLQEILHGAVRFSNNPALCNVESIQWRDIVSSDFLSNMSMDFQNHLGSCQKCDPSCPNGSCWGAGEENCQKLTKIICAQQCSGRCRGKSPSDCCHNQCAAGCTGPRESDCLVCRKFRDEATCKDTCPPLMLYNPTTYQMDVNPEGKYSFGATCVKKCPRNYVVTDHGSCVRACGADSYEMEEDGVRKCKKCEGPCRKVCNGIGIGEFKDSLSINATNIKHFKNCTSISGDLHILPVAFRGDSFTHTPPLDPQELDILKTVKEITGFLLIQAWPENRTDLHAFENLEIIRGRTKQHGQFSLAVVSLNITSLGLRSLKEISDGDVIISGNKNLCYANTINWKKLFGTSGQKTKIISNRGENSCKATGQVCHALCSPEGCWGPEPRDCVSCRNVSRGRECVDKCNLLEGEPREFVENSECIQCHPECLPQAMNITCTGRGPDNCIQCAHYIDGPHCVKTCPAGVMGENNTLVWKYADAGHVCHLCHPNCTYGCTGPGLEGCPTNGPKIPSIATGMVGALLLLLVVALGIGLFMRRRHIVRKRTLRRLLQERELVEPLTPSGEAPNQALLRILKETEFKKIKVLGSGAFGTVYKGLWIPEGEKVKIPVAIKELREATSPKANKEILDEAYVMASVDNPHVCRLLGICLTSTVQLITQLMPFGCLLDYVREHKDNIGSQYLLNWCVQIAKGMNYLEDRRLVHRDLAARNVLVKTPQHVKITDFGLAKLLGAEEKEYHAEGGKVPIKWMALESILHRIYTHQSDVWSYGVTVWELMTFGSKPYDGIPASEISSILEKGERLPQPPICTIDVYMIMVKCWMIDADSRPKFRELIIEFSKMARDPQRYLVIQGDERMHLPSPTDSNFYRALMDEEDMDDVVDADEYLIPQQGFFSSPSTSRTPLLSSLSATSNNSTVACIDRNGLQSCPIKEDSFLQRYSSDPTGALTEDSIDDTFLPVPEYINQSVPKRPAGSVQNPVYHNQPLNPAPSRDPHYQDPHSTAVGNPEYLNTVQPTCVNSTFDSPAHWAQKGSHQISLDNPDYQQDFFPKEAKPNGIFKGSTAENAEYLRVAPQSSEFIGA

[14] = biological target: Vascular endothelial growth factor receptor 2 (Homo sapiens) (UniProt P35968); experiment: Inhibition of KDR (unknown origin) at 1 uM by kinase-glo luminescent assay relative to control
Sequence of Vascular endothelial growth factor receptor 2 (Homo sapiens) (P35968 whole entry): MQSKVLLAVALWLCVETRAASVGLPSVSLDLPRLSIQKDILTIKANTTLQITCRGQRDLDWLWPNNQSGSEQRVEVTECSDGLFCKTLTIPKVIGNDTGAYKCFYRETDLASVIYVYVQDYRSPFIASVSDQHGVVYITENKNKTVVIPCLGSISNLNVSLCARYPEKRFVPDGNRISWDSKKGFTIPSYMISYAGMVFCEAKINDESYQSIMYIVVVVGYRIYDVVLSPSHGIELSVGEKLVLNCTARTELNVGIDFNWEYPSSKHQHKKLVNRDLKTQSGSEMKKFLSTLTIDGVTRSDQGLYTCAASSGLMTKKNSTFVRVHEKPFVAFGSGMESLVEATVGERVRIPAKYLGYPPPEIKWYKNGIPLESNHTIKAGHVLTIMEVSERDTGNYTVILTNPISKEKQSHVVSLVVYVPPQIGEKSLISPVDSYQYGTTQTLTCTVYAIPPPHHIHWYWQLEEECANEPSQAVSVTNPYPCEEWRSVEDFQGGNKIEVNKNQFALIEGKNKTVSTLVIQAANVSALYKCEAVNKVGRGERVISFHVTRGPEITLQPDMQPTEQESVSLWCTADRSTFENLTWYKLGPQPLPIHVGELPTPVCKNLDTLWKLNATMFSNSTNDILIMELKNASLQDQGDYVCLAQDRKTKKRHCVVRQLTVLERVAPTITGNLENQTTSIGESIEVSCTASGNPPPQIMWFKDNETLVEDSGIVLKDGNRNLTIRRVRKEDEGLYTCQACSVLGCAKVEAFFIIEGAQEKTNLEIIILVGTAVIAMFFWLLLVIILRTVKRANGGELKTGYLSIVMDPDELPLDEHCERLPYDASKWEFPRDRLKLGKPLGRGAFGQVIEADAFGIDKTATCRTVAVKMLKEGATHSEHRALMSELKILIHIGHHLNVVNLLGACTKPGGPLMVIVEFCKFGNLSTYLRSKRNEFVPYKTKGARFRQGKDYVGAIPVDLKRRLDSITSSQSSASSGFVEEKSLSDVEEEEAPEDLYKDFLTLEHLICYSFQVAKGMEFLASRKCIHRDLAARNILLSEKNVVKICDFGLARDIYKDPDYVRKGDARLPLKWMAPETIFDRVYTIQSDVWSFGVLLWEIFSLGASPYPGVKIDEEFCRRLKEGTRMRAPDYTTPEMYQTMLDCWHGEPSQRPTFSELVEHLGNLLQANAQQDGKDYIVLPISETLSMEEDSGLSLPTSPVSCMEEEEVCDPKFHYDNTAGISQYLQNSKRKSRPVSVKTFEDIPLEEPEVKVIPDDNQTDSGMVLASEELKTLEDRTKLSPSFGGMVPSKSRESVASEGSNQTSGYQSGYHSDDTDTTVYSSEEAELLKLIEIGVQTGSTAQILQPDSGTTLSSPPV

[15] = Cytotoxicity against human L02 cells assessed as inhibition of cell growth incubated for 72 hrs by MTT assay; assay type: toxicity, cell-based
NCI-H2228 = experiment: Antiproliferative activity against human NCI-H2228 cells assessed as inhibition of cell growth incubated for 72 hrs by MTT assay; assay type: functional, cell-based; settings: Homo sapiens, NCI-H2228, 72 h; read-out: IC50

SMILES | IC50 [1] [µM] | Ratio IC50 (Homo sapiens) | Ratio IC50 [2] | IC50 (HeLa [3]) [µM] | IC50 (NCI-H1975) [µM] | inhibition [4] [%] | IC50 (NCI-H460) [µM] | Ratio IC50 [5] | Ratio IC50 [6] | IC50 (A549) [µM] | inhibition [7] [%] | IC50 [8] [µM] | IC50 [9] [µM] | IC50 (HeLa [10]) [µM] | IC50 (MCF7) [µM] | IC50 [11] [µM] | inhibition [12] | inhibition [13] | inhibition [14] | also measured
CS(=O)(=O)N1CCN(Cc2ccc(-c3nc(-c4ccc(NC(=O)NC5CN6CCC5CC6)cc4)nc(N4CCOCC4)n3)s2)CC1 (centres undefined) | 21.5 | 1.13 | 0.35 | 17.1 | 40.5 | 9 | > 100 | 0.99 | 0.059 | 2.38 | 17.1 | 22.9 | 8.97 | 17.2 | 7.46 | 7.96 | – | – | – | –
CS(=O)(=O)N1CCN(Cc2ccc(-c3nc(-c4ccc(NC(=O)Nc5ccn[nH]5)cc4)nc(N4CCOCC4)n3)s2)CC1 | 8.96 | – | 0.2 | 4.3 | 5.27 | 87.2 | 11.5 | 18.7 | 0.69 | 3.62 | 91.1 | 2.12 | – | 0.23 | 1.8 | – | 4.03% | 10.5% | 1.77% | IC50 at 72 h [15]: > 100 µM
Cn1ccc(NC(=O)Nc2ccc(-c3nc(-c4ccc(CN5CCN(S(C)(=O)=O)CC5)s4)nc(N4CCOCC4)n3)cc2)n1 | 0.24 | – | – | 2.36 | 0.16 | 80.1 | 3.21 | – | – | 0.11 | – | 1.06 | 0.299 | 2.07 | 1.05 | – | 1.02% | inactive | inactive | IC50 at 72 h [15]: > 100 µM
CS(=O)(=O)N1CCN(Cc2ccc(-c3nc(-c4ccc(NC(=O)Nc5ncccn5)cc4)nc(N4CCOCC4)n3)s2)CC1 | > 100 | – | – | 15.2 | 12.7 | 91.3 | 17.9 | 1.21 | 1.03 | 13.1 | 93 | > 100 | – | 12.6 | 12.5 | – | – | – | – | –
CS(=O)(=O)N1CCN(Cc2cc3nc(-c4cccc5[nH]ncc45)nc(N4CCOCC4)c3s2)CC1 [PICTILISIB] | 3.13 | – | – | 3.15 | 2.42 | 97.8 | 2.68 | – | – | 1.03 | 90.6 | 1.25 | – | 2.97 | 1.2 | – | inactive | inactive | inactive | IC50 (NCI-H2228): 1.07 µM
CS(=O)(=O)N1CCN(Cc2ccc(-c3nc(-c4ccc(NC(=O)Nc5nn[nH]n5)cc4)nc(N4CCOCC4)n3)s2)CC1 | > 100 | – | – | 48.5 | > 100 | – | > 100 | – | – | 2.82 | – | > 100 | – | > 100 | 15.2 | – | – | – | – | –
Cn1nccc1NC(=O)Nc1ccc(-c2nc(-c3ccc(CN4CCN(S(C)(=O)=O)CC4)s3)nc(N3CCOCC3)n2)cc1 | 8.61 | 2.33 | 0.048 | 45.1 | 9.87 | 47.5 | 10.6 | 1.43 | 1.67 | 16.4 | 72.7 | 15.9 | 1.33 | 31.7 | 0.42 | 0.571 | – | – | – | –
CS(=O)(=O)N1CCN(Cc2ccc(-c3nc(-c4ccc(NC(=O)NN5CCOCC5)cc4)nc(N4CCOCC4)n3)s2)CC1 | 26.9 | – | 0.34 | 31.2 | 0.11 | – | > 100 | 1.38 | 186.72 | 20.5 | – | 15.9 | – | 22.6 | 9.11 | – | – | – | – | –
CS(=O)(=O)N1CCN(Cc2ccc(-c3nc(-c4ccc(NC(=O)Nc5cnccn5)cc4)nc(N4CCOCC4)n3)s2)CC1 | > 100 | 14.7 | – | 18.2 | 8.22 | 20.6 | 25.4 | 912.5 | 0.86 | 7.08 | 76.6 | 15.8 | 2.36 | 0.021 | 5.87 | 0.16 | – | – | – | IC50 (NCI-H2228): 10.3 µM
